Read-outs that look alike come from different tables or passages of the source. Blank lines part the entries; values can stand above or below the compound they belong to.
Columns and labels:
AR42J tumor-bearing mice [1] = conditions: female, CD-1 nude (athymic nude), mouse, in vivo, iv, 5 MBq per mouse
Procedure: (§1) Female athymic nude mice (CD-1 nude), age 5–6 weeks, were obtained from Charles River Laboratories, Sulzfeld, Germany. U87MG cells and AR42J-cells were suspended in PBS (5 × 10^6 cells in 100 μL) and subcutaneously inoculated on each shoulder. Two to three weeks later, when the tumor reached a size of about 300–500 mm^3, the mice were used for the in vivo studies.
(§2) Biodistribution studies were performed with U87MG tumor and AR42J tumor-bearing mice 2 weeks after tumor cell inoculation. ^44Sc- and ^68Ga-labeled peptides (~5 MBq, ~1 nmol per mouse) were intravenously injected in a volume of 100–200 μL. Mice were sacrificed at 30 min, 2 h and 5 h after injection (p.i.) of the ^44Sc-labeled peptides. Mice which were injected with ^68Ga-labeled peptides were sacrificed at 30 min and 2 h p.i. Selected tissues and organs were collected, weighed, and counted for radioactivity using a γ-counter (Wallac Wizard 1480, Perkin Elmer). The results were listed as a percentage of the injected activity per gram of tissue mass (% IA/g), using counts of a defined volume of the original injection solution counted at the same time. The data were analyzed for significance using a two-way ANOVA test (Graph Pad Prism 6 software, version 6.05). A p-value of < 0.05 was considered statistically significant.

in vivo = conditions: female, CD-1 nude (athymic nude), mouse, iv, 5 MBq per mouse, total radioactivity, Biodistribution
Procedure: as §1, §2

[2] = Biodistribution in AR42J tumor-bearing mice; conditions: female, CD-1 nude (athymic nude), mouse, AR42J tumor / liver, iv, total radioactivity, Tumor-to-liver ratio, i.v. ~5 MBq (~1 nmol), 2 h p.i., mean ± SD, n=3
Procedure: as §1, §2

AR42J tumor-bearing mice [3] = test: PET/CT imaging of AR42J tumor-bearing mice; conditions: 3 h after i.v. injection of ~10 MBq (~1 nmol; ^44Sc-NODAGA-NOC ~3 nmol), one or two mice
Procedure: A bench-top preclinical PET scanner (G8, Sofie Biosciences, California, U.S.A. and Perkin Elmer, Massachusetts, U.S.A.) was employed for the PET scans of the tumor-bearing mice. The energy window was set to 150–650 keV. Mice were injected intravenously with ^44Sc- or ^68Ga-labeled peptides (~10 MBq, ~1 nmol per mouse) in a volume of 100–200 μL. The PET scans were performed 3 h and 5 h after injection of the ^44Sc-labeled peptides and 3 h after injection of the ^68Ga-labeled peptides, using G8 acquisition software (version 2.0.0.10). All static PET scans lasted for 20 min. During the acquisition the mice were anesthetized by inhalation of a mixture of isoflurane and oxygen. The images were reconstructed with maximum-likelihood expectation maximization (MLEM). Gauss post-reconstruction filtering was performed using VivoQuant post-processing software (version 2.10, inviCRO Imaging Services and Software, Boston, U.S.A.).

[4] = Metal challenge stability in saline with 10 mM Cu^2+ (TLC); format: physicochemical; conditions: 0.9 % NaCl with 10 mM Cu^2+, 37 °C, after two half-lives, 80–100 MBq in 800 μL
Procedure: Aliquots were taken from the prepared solutions at different time points over at least four half-lives, respectively, of ^44Sc and ^68Ga and analyzed by TLC (TLC was used, as the high metal concentrations used in this study may impair the long-term performance of HPLC columns). […] The TLC plates (Silica-gel 60, Merck) were developed using 0.1 M sodium citrate (pH 4.7) as mobile phase. The quantitative distribution of radioactivity was determined with an autoradiography system (Cyclone Plus, Perkin Elmer) and its associated software (Optiquant, version 5.0).
The influence of high metal cation concentration on the stability of ^44Sc and ^68Ga labeled peptides was monitored in solutions containing 0.01 M Fe^3+ or Cu^2+. An aqueous metal cation solution (16 μL of a 0.5 M Fe^3+/Cu^2+ solution) was added to 80–100 MBq of ^44Sc or ^68Ga labeling solution and diluted with 0.9 % NaCl solution to a volume of 800 μL. The incubation conditions, time points of retrieving samples and analysis by TLC were kept the same, as described above.

[5] = Biodistribution in U87MG tumor-bearing mice; format: in vivo; conditions: female, CD-1 nude (athymic nude), mouse, U87MG tumor, iv, total radioactivity, i.v. ~5 MBq (~1 nmol), 2 h p.i., mean ± SD, n=3, read-out: Biodistribution, U87MG Tumor
Procedure: as §1, §2

Compound: C[C@@H](O)[C@@H]1NC(=O)[C@H](CCCCN)NC(=O)[C@@H](Cc2c[nH]c3ccccc23)NC(=O)[C@H](Cc2cccc3ccccc23)NC(=O)[C@@H](NC(=O)[C@@H](Cc2ccccc2)NC(=O)CCC(C(=O)O)N2CCN(CC(=O)O)CCN(CC(=O)O)CC2)CSSC[C@@H](C(=O)N[C@H](CO)[C@@H](C)O)NC1=O (stereo partly shown) [^68Ga-NODAGA-NOC, metal not drawn]
tissue to tissue ratio at 2 h [2]: 5.88 ± 0.68 | PET/CT distribution of radioactivity (in words) (AR42J tumor-bearing mice [3]): accumulated solely in tumors and kidneys

Compound: N=C(N)NCCC[C@@H]1NC(=O)[C@H](CCCCNC(=O)CN2CCN(CC(=O)O)CCN(CC(=O)O)CCN(CC(=O)O)CC2)NC(=O)[C@@H](Cc2ccccc2)NC(=O)[C@H](CC(=O)O)NC(=O)CNC1=O [^68Ga-DOTA-RGD, metal not drawn]
Amount of intact compound in presence of 10 mM Cu^2+ [4]: 10%

Compound: N=C(N)NCCC[C@@H]1NC(=O)[C@H](CCCCNC(=O)CCC(C(=O)O)N2CCN(CC(=O)O)CCN(CC(=O)O)CC2)NC(=O)[C@@H](Cc2ccc(O)cc2)NC(=O)[C@H](CC(=O)O)NC(=O)CNC1=O (stereo partly shown) [^68Ga-NODAGA-RGD, metal not drawn]
tissue uptake at 2 h [5]: 3.13 ± 0.27 %ID/g

More lines, now with the values ahead:

Biodistribution, Pancreas (AR42J tumor-bearing mice [1]; 2 h): 0.71 ± 0.01 % IA/g | Biodistribution, Stomach (AR42J tumor-bearing mice [1]; 2 h): 0.71 ± 0.05 % IA/g | tissue uptake at 0.5 h (in vivo; Intestines): 1.02 ± 0.37 %ID/g | tissue uptake at 0.5 h (in vivo; Pancreas): 1.29 ± 0.28 %ID/g | tissue uptake at 5 h (in vivo; Pancreas): 0.57 ± 0.07 %ID/g | tissue uptake at 0.5 h (in vivo; Stomach): 1.38 ± 0.29 %ID/g | tissue uptake at 5 h (in vivo; Stomach): 0.52 ± 0.09 %ID/g
Compound: C[C@@H](O)[C@@H]1NC(=O)[C@H](CCCCN)NC(=O)[C@@H](Cc2c[nH]c3ccccc23)NC(=O)[C@H](Cc2cccc3ccccc23)NC(=O)[C@@H](NC(=O)[C@@H](Cc2ccccc2)NC(=O)CN2CCN(CC(=O)O)CCN(CC(=O)O)CCN(CC(=O)O)CC2)CSSC[C@@H](C(=O)N[C@H](CO)[C@@H](C)O)NC1=O [^44Sc-DOTA-NOC, metal not drawn]

Biodistribution, Intestines (AR42J tumor-bearing mice [1]; 0.5 h): 0.99 ± 0.13 % IA/g | Biodistribution, Pancreas (AR42J tumor-bearing mice [1]; 0.5 h): 2.48 ± 0.11 % IA/g | Biodistribution, Stomach (AR42J tumor-bearing mice [1]; 0.5 h): 2.27 ± 0.21 % IA/g | Biodistribution, Pancreas (AR42J tumor-bearing mice [1]; 2 h): 1.70 ± 0.22 % IA/g | Biodistribution, Stomach (AR42J tumor-bearing mice [1]; 2 h): 1.68 ± 0.27 % IA/g
Compound: C[C@@H](O)[C@@H]1NC(=O)[C@H](CCCCN)NC(=O)[C@@H](Cc2c[nH]c3ccccc23)NC(=O)[C@H](Cc2cccc3ccccc23)NC(=O)[C@@H](NC(=O)[C@@H](Cc2ccccc2)NC(=O)CN2CCN(CC(=O)O)CCN(CC(=O)O)CCN(CC(=O)O)CC2)CSSC[C@@H](C(=O)N[C@H](CO)[C@@H](C)O)NC1=O [^68Ga-DOTA-NOC, metal not drawn]

— article PMC5843811, “^44Sc for labeling of DOTA- and NODAGA-functionalized peptides: preclinical in vitro and in vivo investigations” (EJNMMI Radiopharmacy and Chemistry, 2016)
